Ends that are not written are not given here.
Legend:
[1] = Adverse events observed in the rat studies; format: in vivo
Method: In the following examples, which are not intended to be limiting, a continuous infusion of TA1 was evaluated in a cancer therapy model with the use of surgically implanted osmotic minipumps, which deliver fluids at a constant flow rate for 5 days. Rats were given 5-fluorouracil (5-FU) to cause immune suppression, and then treated with injected or infused TA1 8 days later (the nadir of white cell count after 5-FU). Treatment groups, 8 rats each, were: control (minipumps with saline); low dose TA1 (0.2 mg/Kg sc injection; empty minipumps); high dose TA1 (3.5 mg/Kg sc injection; empty minipumps); and high dose infused TA1 (3.5 mg/Kg infused by minipumps). Immune parameters were determined at baseline and 8 days after 5-FU treatment (day 1 of TA1 treatment), and also at 5, 12, 20, and 27 days after TA1 treatment.
8 days after 5-FU treatment, rats were randomly assigned to one of the following groups (n=15): • Control (saline in minipump) • High dose TA1, injected s.c. at 3.5 mg/Kg (with empty minipumps) • Continuous infusion TA1, provided by minipump at 3.5 mg/Kg/5 days

[2] = cited from earlier work
[3] = subcutaneously injected; cited from earlier work
activated T cells, CD25+ = assay: Example 1: return of activated T cells in 5-FU immune-suppressed rats; format: in vivo, rat; conditions: one injection, molar equivalent of 200 ug/kg thymosin, compared with Thymosin alpha 1 200 ug/kg
Method: (§1) Rats were injected with 5-fluorouracil (5-FU) to cause immune suppression, then were treated with an injection of thymosin alpha 1 (200 ug/kg) or pegylated thymosin alpha 1 (20,000 MW PEG-Thymosin alpha 1) (the equivalent on a molar basis of 200 ug/kg of thymosin molecules) to determine the effect on immune parameters.

NK activity = assay: Example 1: return of NK activity in 5-FU immune-suppressed rats; format: in vivo, rat; conditions: one injection, molar equivalent of 200 ug/kg thymosin, compared with Thymosin alpha 1 200 ug/kg
Method: as §1

Row | Substance | adverse events ([1]; one rat given both injection 3.5 mg/Kg and continuous infusion of another 3.5 mg/Kg) | adverse events ([1]; rats, doses 15 times higher than usual (in one animal 30 times higher)) | dose found to be safe for humans [2] | plasma half-life [3] | return of activated T cells, CD25+ (activated T cells, CD25+) | return of NK activity (after depression by 5-FU) (NK activity)
1 | Ac-SDAAVDTSSEITTKDLKEKKEVVEEAEN-OH [TA1, Thymosin alpha 1] | no obvious adverse events | No adverse events were observed | ≤ 16 mg/kg body weight/day | about 2 hours |  | 
2 | PEG-Thymosin alpha 1: 20,000 molecular weight PEG conjugated to the N-terminal end of TA1 ({PEG 20 kDa}-SDAAVDTSSEITTKDLKEKKEVVEEAEN; ends and bridges not checked; UniProt P06454 2-29, looked up) |  |  |  |  | greater | greater

— patent US7297676B2, “Thymosin alpha 1 peptide/polymer conjugates” (SciClone Pharmaceuticals, Inc., priority 2001, dated 2007)
